Results: US10308639B2, “Phosphatidylinositol 3-kinase inhibitors” (Gilead Sciences, Inc., priority 2014, dated 2019)
Where two headings read alike, the source gives them in different places.

Assays:
Assay type in all cases: biochemical
[1] = target: T1, PI3Kβ (Homo sapiens, UniProt P42338); assay: TR-FRET enzymatic activity assay, PI3Kβ
T1 construct: made in house

[2] = target: T2, PI3Kδ (Homo sapiens, UniProt O00329); assay: TR-FRET enzymatic activity assay, PI3Kδ
T2 construct: made in house

[3] = target: T3, PI3Kγ (Homo sapiens, UniProt P48736); assay: TR-FRET enzymatic activity assay, PI3Kγ; conditions: read-out: PI3Kγ IC50
T3 construct: made in house
Procedure, shortened: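 Activity measured by time-resolved FRET; each isoform tested in its own enzymatic reaction.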

[4] = Table 2, TR-FRET, 2x Km ATP, 30 minutes at 25° C.

T3 sequence (P48736 whole entry): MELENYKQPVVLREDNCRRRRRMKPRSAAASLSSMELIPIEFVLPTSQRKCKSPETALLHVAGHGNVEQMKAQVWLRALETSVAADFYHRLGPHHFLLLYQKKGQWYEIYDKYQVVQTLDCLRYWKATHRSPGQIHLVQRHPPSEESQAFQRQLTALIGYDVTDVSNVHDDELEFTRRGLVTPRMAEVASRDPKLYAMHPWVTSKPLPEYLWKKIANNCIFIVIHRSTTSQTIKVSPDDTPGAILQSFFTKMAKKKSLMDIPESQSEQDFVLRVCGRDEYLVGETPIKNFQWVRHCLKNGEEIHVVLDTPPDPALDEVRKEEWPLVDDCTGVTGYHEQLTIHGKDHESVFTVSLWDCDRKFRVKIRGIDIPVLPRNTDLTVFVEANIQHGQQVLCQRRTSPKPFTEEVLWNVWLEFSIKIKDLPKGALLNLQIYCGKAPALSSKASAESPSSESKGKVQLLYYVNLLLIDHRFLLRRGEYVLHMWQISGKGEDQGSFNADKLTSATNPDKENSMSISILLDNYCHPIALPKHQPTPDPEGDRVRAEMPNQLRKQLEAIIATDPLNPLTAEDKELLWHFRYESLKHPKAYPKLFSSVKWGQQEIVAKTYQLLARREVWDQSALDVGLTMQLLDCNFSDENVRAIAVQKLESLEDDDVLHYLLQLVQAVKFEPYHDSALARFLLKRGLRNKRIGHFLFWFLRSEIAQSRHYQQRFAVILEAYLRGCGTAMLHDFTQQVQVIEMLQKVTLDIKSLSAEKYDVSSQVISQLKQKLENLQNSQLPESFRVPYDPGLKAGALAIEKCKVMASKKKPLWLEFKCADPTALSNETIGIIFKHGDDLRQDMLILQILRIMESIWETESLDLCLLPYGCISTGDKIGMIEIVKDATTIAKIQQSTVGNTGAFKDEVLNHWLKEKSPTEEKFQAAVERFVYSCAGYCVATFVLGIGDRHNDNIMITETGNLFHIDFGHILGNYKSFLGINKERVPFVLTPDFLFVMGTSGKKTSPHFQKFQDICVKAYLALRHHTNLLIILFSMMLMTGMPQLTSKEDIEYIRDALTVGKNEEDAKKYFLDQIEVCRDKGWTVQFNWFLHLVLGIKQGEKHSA
T1 sequence (P42338 whole entry): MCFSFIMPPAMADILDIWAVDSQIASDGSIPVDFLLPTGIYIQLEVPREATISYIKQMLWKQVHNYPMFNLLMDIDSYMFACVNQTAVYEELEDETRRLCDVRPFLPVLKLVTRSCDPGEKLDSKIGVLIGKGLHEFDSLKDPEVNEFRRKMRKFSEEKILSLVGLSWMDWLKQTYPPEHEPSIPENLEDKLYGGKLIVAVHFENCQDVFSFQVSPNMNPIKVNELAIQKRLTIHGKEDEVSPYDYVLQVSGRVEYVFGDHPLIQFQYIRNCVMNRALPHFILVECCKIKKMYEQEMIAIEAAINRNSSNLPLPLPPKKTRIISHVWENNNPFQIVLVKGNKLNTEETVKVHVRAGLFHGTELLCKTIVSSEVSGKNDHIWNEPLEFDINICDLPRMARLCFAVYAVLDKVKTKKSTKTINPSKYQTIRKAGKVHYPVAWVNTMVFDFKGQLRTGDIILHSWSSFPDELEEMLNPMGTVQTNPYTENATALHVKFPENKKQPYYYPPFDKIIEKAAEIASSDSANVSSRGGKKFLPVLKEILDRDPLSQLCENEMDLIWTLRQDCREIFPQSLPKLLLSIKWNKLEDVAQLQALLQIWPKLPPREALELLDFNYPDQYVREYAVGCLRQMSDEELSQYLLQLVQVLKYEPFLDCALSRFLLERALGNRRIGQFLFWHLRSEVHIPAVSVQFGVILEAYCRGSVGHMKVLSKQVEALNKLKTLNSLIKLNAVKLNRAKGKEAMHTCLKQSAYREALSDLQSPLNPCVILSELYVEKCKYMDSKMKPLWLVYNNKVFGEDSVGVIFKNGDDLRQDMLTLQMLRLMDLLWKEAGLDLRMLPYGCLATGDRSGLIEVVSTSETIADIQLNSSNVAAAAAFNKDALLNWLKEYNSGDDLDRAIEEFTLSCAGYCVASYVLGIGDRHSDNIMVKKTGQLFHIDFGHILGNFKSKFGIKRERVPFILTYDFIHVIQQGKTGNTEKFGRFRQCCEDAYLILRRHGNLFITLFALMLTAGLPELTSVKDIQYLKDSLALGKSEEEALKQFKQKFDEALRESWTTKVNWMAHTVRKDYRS
T1 sequence (P27986 whole entry partner): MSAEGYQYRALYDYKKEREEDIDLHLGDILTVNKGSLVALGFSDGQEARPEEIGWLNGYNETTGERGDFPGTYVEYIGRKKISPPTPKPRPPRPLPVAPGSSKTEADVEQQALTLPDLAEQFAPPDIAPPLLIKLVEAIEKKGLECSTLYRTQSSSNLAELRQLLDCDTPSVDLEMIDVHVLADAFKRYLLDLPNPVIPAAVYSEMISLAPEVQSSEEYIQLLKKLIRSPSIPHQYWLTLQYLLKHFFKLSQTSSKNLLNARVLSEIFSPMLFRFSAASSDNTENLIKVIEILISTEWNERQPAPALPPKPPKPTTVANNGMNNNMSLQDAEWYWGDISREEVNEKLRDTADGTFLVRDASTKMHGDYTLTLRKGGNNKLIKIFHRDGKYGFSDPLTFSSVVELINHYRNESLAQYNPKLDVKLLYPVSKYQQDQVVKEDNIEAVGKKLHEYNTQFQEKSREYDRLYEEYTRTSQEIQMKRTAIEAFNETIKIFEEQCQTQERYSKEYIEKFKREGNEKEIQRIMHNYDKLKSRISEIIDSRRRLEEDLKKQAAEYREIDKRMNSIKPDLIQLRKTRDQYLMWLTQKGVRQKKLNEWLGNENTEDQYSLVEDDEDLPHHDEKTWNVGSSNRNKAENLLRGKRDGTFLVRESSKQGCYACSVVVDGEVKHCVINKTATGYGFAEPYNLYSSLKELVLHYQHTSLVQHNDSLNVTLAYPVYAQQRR
T2 sequence (O00329 whole entry): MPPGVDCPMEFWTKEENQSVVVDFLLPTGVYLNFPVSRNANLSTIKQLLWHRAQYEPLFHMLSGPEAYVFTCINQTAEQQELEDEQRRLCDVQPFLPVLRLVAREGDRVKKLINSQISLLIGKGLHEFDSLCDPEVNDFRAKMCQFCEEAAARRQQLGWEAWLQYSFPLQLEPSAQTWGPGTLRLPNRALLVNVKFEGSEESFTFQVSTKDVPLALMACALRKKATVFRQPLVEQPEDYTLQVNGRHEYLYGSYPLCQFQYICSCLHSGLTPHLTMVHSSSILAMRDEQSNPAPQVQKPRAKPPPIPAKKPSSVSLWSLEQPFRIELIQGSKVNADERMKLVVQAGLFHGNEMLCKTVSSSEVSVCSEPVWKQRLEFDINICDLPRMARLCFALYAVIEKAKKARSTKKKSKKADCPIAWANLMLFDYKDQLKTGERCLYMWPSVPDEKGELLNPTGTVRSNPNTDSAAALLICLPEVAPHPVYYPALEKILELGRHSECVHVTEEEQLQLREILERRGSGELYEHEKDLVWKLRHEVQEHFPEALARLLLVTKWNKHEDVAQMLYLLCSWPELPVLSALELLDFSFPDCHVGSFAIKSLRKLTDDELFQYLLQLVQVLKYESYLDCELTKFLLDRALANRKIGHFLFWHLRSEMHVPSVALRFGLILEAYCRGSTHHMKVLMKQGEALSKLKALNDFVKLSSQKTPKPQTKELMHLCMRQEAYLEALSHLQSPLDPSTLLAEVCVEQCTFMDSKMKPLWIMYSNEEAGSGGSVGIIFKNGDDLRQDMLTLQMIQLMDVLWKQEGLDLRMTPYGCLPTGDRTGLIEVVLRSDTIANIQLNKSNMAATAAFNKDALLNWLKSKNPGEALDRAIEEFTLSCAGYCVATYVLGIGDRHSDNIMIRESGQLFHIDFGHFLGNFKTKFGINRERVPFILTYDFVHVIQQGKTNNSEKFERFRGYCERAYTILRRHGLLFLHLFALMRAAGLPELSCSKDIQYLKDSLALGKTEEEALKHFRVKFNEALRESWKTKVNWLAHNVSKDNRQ
T2 sequence (P27986 whole entry partner): as the sequence (P27986 whole entry partner) above

Row | Structure (SMILES) | IC50 ([1]; Table 2a, same assay) [nM] | IC50 ([2]; Table 2a, same assay) [nM] | IC50 ([3]; Table 2a, same assay) [nM] | IC50 [1, 4] [nM] | IC50 [2, 4] [nM] | IC50 [3, 4] [nM] | IC50 [3] [nM]
1 | Cc1c[nH]nc1-n1c([C@H](C)Nc2ncnc(N)c2C#N)nc2cccc(Cl)c2c1=O [Compound 3, (S)-4-amino-6-((1-(5-chloro-3-(4-methyl-1H-pyrazol-3-yl)-4-oxo-3,4-dihydroquinazolin-2-yl)ethyl)amino)pyrimidine-5-carbonitrile] |  |  |  | 55 | 2 | 3000 | 
2 | Nc1nc(N)c(Cl)c(N[C@@H](CO)c2nc3c(Cl)cc(F)cc3c(=O)n2-c2cc[nH]n2)n1 [Compound 149, (R)-8-chloro-2-(1-((2,6-diamino-5-chloropyrimidin-4-yl)amino)-2-hydroxyethyl)-6-fluoro-3-(1H-pyrazol-3-yl)quinazolin-4(3H)-one] | 93 | 210 | > 10000 |  |  |  | 
3 | C[C@H](Nc1nc(N)nc(N)c1Cl)c1nc2c(F)ccc(F)c2c(=O)n1-c1cc[nH]n1 [Compound 152, (S)-2-(1-((2,6-diamino-5-chloropyrimidin-4-yl)amino)ethyl)-5,8-difluoro-3-(1H-pyrazol-3-yl)quinazolin-4(3H)-one] | 20 | 13 | > 10000 |  |  |  | 
4 | C[C@H](Nc1nc(N)nc(N)c1Cl)c1nc2c(Cl)ccc(F)c2c(=O)n1-c1cc[nH]n1 [Compound 147, (S)-8-chloro-2-(1-((2,6-diamino-5-chloropyrimidin-4-yl)amino)ethyl)-5-fluoro-3-(1H-pyrazol-3-yl)quinazolin-4(3H)-one] | 14 | 15 | > 10000 |  |  |  | 
5 | C[C@H](Nc1nc(N)nc(N)c1Cl)c1nc2c(Cl)cccc2c(=O)n1-c1cc[nH]n1 [Compound 156, (S)-8-chloro-2-(1-((2,6-diamino-5-chloropyrimidin-4-yl)amino)ethyl)-3-(1H-pyrazol-3-yl)quinazolin-4(3H)-one] | 26 | 9 | > 10000 |  |  |  | 
6 | CC[C@H](Nc1nc(N)nc(N)c1C#N)c1nc2cccc(Cl)c2c(=O)n1-c1n[nH]cc1Br [Compound 83, (S)-2,4-diamino-6-((1-(3-(4-bromo-1H-pyrazol-3-yl)-5-chloro-4-oxo-3,4-dihydroquinazolin-2-yl)propyl)amino)pyrimidine-5-carbonitrile] |  |  |  | 13 | 1 | 240 | 
7 | C[C@H](Nc1ncnc2scnc12)c1nc2cccc(Cl)c2c(=O)n1-c1ccc[nH]1 [Compound 290, (S)-5-chloro-3-(1H-pyrrol-2-yl)-2-(1-(thiazolo[5,4-d]pyrimidin-7-ylamino)ethyl)quinazolin-4(3H)-one] | 69 | 0.5 | 72 |  |  |  | 
8 | C[C@H](Nc1ncnc2sncc12)c1nc2cccc(Cl)c2c(=O)n1-c1cc[nH]n1 [Compound 167, (S)-5-chloro-2-(1-(isothiazolo[5,4-d]pyrimidin-4-ylamino)ethyl)-3-(1H-pyrazol-3-yl)quinazolin-4(3H)-one] | 110 | 18 | > 10000 |  |  |  | 
9 | CCC[C@H](Nc1nc(N)nc(N)c1Cl)c1nc2c(Cl)ccc(Cl)c2c(=O)n1-c1cn[nH]c1 [Compound 252, (S)-5,8-dichloro-2-(1-((2,6-diamino-5-chloropyrimidin-4-yl)amino)butyl)-3-(1H-pyrazol-4-yl)quinazolin-4(3H)-one] | 920 | 75 | > 10000 |  |  |  | 
10 | N#Cc1c(N)nc(N)nc1N[C@H](c1nc2c(Cl)cccc2c(=O)n1-c1cn[nH]c1)C1CC1 [Compound 29, (S)-2,4-diamino-6-(((8-chloro-4-oxo-3-(1H-pyrazol-4-yl)-3,4-dihydroquinazolin-2-yl)(cyclopropyl)methyl)amino)pyrimidine-5-carbonitrile] |  |  |  | 3 | 6 | 440 | 
11 | CC[C@H](Nc1nc(Cl)nc2[nH]nc(C)c12)c1nc2c(Cl)ccc(Cl)c2c(=O)n1-c1cc[nH]n1 [Compound 88, (S)-5,8-dichloro-2-(1-((6-chloro-3-methyl-1H-pyrazolo[3,4-d]pyrimidin-4-yl)amino)propyl)-3-(1H-pyrazol-3-yl)quinazolin-4(3H)-one] |  |  |  | 4200 | 2700 |  | > 10000
12 | CC[C@H](Nc1ncnc2[nH]cc(F)c12)c1nc2c(Cl)ccc(Cl)c2c(=O)n1-c1cn[nH]c1 [Compound 58, (S)-5,8-dichloro-2-(1-((5-fluoro-7H-pyrrolo[2,3-d]pyrimidin-4-yl)amino)propyl)-3-(1H-pyrazol-4-yl)quinazolin-4(3H)-one] |  |  |  | 320 | 14 | 5900 | 

Second part, the compound after the results:

Row | IC50 ([1]; Table 2a, same assay) [nM] | IC50 ([2]; Table 2a, same assay) [nM] | IC50 ([3]; Table 2a, same assay) [nM] | IC50 [1, 4] [nM] | IC50 [2, 4] [nM] | IC50 [3, 4] [nM] | IC50 [3] [nM] | Structure (SMILES)
13 | 9 | 4 | 4000 |  |  |  |  | C[C@H](Nc1nc(N)nc(C(F)F)c1C#N)c1nc2c(Cl)cccc2c(=O)n1-c1cc[nH]n1 [Compound 188, (S)-2-amino-4-((1-(8-chloro-4-oxo-3-(1H-pyrazol-3-yl)-3,4-dihydroquinazolin-2-yl)ethyl)amino)-6-(difluoromethyl)pyrimidine-5-carbonitrile]
14 |  |  |  | 2 | 5 | 4100 |  | CC[C@H](Nc1nc(N)nc(N)c1C#N)c1nc2c(C)ccc(F)c2c(=O)n1-c1cc[nH]n1 [Compound 36, (S)-2,4-diamino-6-((1-(5-fluoro-8-methyl-4-oxo-3-(1H-pyrazol-3-yl)-3,4-dihydroquinazolin-2-yl)propyl)amino)pyrimidine-5-carbonitrile]
15 | 18 | 8 | 7300 |  |  |  |  | C[C@@H](Nc1nc(N)nc(N)c1C#N)c1nc2cccc(C(F)F)c2c(=O)n1-c1cc[nH]n1 [Compound 182, (R)-2,4-diamino-6-((1-(5-(difluoromethyl)-4-oxo-3-(1H-pyrazol-3-yl)-3,4-dihydroquinazolin-2-yl)ethyl)amino)pyrimidine-5-carbonitrile]
16 | 280 | 160 | > 10000 |  |  |  |  | C[C@H](Nc1nc(N)nc(N)c1Cl)c1nc2c(C(F)F)cccc2c(=O)n1-c1cc[nH]n1 [Compound 200, (S)-2-(1-((2,6-diamino-5-chloropyrimidin-4-yl)amino)ethyl)-8-(difluoromethyl)-3-(1H-pyrazol-3-yl)quinazolin-4(3H)-one]
17 | 36 | 5 | 520 |  |  |  |  | C[C@H](Nc1nc(N)nc(N)c1Cl)c1nc2cccc(C(F)F)c2c(=O)n1-c1cn[nH]c1 [Compound 213, (S)-2-(1-((2,6-diamino-5-chloropyrimidin-4-yl)amino)ethyl)-5-(difluoromethyl)-3-(1H-pyrazol-4-yl)quinazolin-4(3H)-one]
18 | 4 | 4 | 7800 |  |  |  |  | N#Cc1c(N)nc(N)nc1N[C@H](c1nc2c(Cl)cc(F)cc2c(=O)n1-c1cc[nH]n1)C1CCC1 [Compound 130, (S)-2,4-diamino-6-(((8-chloro-6-fluoro-4-oxo-3-(1H-pyrazol-3-yl)-3,4-dihydroquinazolin-2-yl)(cyclobutyl)methyl)amino)pyrimidine-5-carbonitrile]
19 |  |  |  | 5 | 3 | 2800 |  | C[C@H](Nc1nc(N)nc(N)c1Cl)c1nc2cccc(C(F)F)c2c(=O)n1-c1cc[nH]n1 [Compound 126, (S)-2-(1-((2,6-diamino-5-chloropyrimidin-4-yl)amino)ethyl)-5-(difluoromethyl)-3-(1H-pyrazol-3-yl)quinazolin-4(3H)-one]
20 | 1 | 0.7 | 34 |  |  |  |  | C[C@H](Nc1nc(N)nc(N)c1C#N)c1nc2cccc(C(F)F)c2c(=O)n1-c1cn[nH]c1 [Compound 212, (S)-2,4-diamino-6-((1-(5-(difluoromethyl)-4-oxo-3-(1H-pyrazol-4-yl)-3,4-dihydroquinazolin-2-yl)ethyl)amino)pyrimidine-5-carbonitrile]
21 | 7 | 6 | 1800 |  |  |  |  | C[C@H](Nc1nc(N)nc(N)c1C#N)c1nc2ccc(Cl)c(C(F)F)c2c(=O)n1-c1cc[nH]n1 [Compound 230, (S)-2,4-diamino-6-((1-(6-chloro-5-(difluoromethyl)-4-oxo-3-(1H-pyrazol-3-yl)-3,4-dihydroquinazolin-2-yl)ethyl)amino)pyrimidine-5-carbonitrile]
22 | 5 | 2 | 2100 |  |  |  |  | Cc1ccc(Cl)c2nc([C@H](C)Nc3nc(N)nc(C(F)F)c3C#N)n(-c3cc[nH]n3)c(=O)c12 [Compound 224, (S)-2-amino-4-((1-(8-chloro-5-methyl-4-oxo-3-(1H-pyrazol-3-yl)-3,4-dihydroquinazolin-2-yl)ethyl)amino)-6-(difluoromethyl)pyrimidine-5-carbonitrile]
23 | 1 | 0.6 | 870 |  |  |  |  | C[C@H](Nc1nc(N)nc(N)c1C#N)c1nc2c(Cl)ccc(C(F)F)c2c(=O)n1-c1cc[nH]n1 [Compound 228, (S)-2,4-diamino-6-((1-(8-chloro-5-(difluoromethyl)-4-oxo-3-(1H-pyrazol-3-yl)-3,4-dihydroquinazolin-2-yl)ethyl)amino)pyrimidine-5-carbonitrile]
24 |  |  |  | 2 | 3 | 1300 |  | N#Cc1c(N)nc(N)nc1N[C@H](c1nc2c(Cl)cccc2c(=O)n1-c1cc[nH]n1)C1CC1 [Compound 30, (S)-2,4-diamino-6-(((8-chloro-4-oxo-3-(1H-pyrazol-3-yl)-3,4-dihydroquinazolin-2-yl)(cyclopropyl)methyl)amino)pyrimidine-5-carbonitrile]
25 | 0.6 | 0.2 | 83 |  |  |  |  | C[C@H](Nc1nc(N)nc(N)c1C#N)c1nc2c(Cl)ccc(Cl)c2c(=O)n1-c1cn[nH]c1 [Compound 217, (S)-2,4-diamino-6-((1-(5,8-dichloro-4-oxo-3-(1H-pyrazol-4-yl)-3,4-dihydroquinazolin-2-yl)ethyl)amino)pyrimidine-5-carbonitrile]
26 | 33 | 21 | > 10000 |  |  |  |  | C[C@H](Nc1nc(N)nc(N)c1C#N)c1nc2cc(Cl)ccc2c(=O)n1-c1cc[nH]n1 [Compound 139]
